The source of these data is patent publication US4916149A, “Diuretic and saluretic 4-chloro-3-sulfamoylbenzoic acid hydrazides” (Chinoin Gyogyszer es Vegyeszeti Termekek Gyara Rt., priority 1987, dated 1990).

Where two headings read alike, the source gives them in different places.

A short description of test [1]: Saluretic/diuretic screening in rats (method of Lipschitz as modified by Kagawa and Kahn). To be noted: single oral dose (5 mg/kg oral screen dose), 24 hours; for response vs control in vivo at 5 mg/kg: Rattus norvegicus. The class given is in vivo, male LATI CFY rats. The procedure: The compounds of the present invention were compared with Dihydrochlorothiazide and Furosemide in rats by administration of a 5 mg/kg oral screen dose.
The screening tests were carried out on male LATI CFY rats having an average body-weight of 240 g. The animals were kept on standard rat food and starved for 16 hours before the experiment but they received water ad libitum. For evaluation of the diuretic effect, the method of Lipschitz as modified by Kagawa and Kahn [Arch. Int. Pharmacodyn. 137, 241 (1962)] was used.
Effect of a single oral dose of the compounds according to the invention on water, sodium and potassium diuresis during 24 hours as percentage of the simultaneously measured control values as well as their effect on the Na/K ratio of the urine discharged

Test [2] can be described thus: Saluretic effect in dogs (urine volume, Na and K, 0-7 and 7-24 hours). The class given is in vivo, perineotomized female dogs. To be noted: 7 to 24 hours' period. As for the experimental part:
The compound described in Example 1 was studied also on perineotomized female dogs. […] For adaptation, starting from the 4th week following the operation, the urinary bladder of the animals was evacuated by a catheter or treated with saline via a gastric tube. During the experiment, the dogs were kept on a standard food and they received water ad libitum. On the days of the experiements, the dogs were fasted and received only 20 ml/kg of water. Sodium in an 7.7 mmol/kg and potassium in an amount of 6.02 mmol/kg were introduced with the food.
On the day of the experiment, the bladder of the animals was evacuated and a blood sample was taken from the leg vein, then a solution of the diuretic and solvent to the controls, respectively were administered in a dose of 10 ml/kg via a gastric tube. The animals were placed separately in metabolic cages. After 7 and 24 hours, respectively the bladder of the animals was catheterized and the urine was collected by washing the metabolic cage. After 24 hours following the catheterization, a blood sample was taken again.
In addition to the discharged volume, the Na^+ and K^+ content of the urine as well as the glucose and cholesterol level of the serum were determined.

Test [3] in a line: Antihypertensive activity in spontaneously hypertensive (SH) rats, systolic blood pressure. The class given is in vivo, spontaneously hypertensive (SH) male Okamoto rats. The following applies: single oral dose 100 mg/kg. The procedure:
[…] A hypotension of 21.1% was induced by the compound of Example 1 by 12 hours after administration.
These investigations were carried but in spontaneously hypertensive (SH) male Okamoto rats. At least one week before starting the experiment, the animals had individually been maintained in cages and received water and semisynthetic rat food ad libitum. In the same time of each day, the blood pressure of each animal was measured and gastric tubing was carried out while immobilizing the animals. Animals with a blood pressure below 170 Hgmm were excluded from the experiment. Based on the daily determined blood pressure values, the animals were divided to experimental groups having a nearly equal average blood pressure and deviation.
At the beginning of the experiment, the animals were given 0.2 ml/100 g of a solution containing the test compound, and 1 ml/100 g of Furosemide solution, respectively. Animal groups treated with physiological saline solution and solvent, respectively were also investigated in each experiment.
Before measuring the blood pressure, the animals were put into a light-insulated sound-proof chamber then immobilized. An inflatable rubber cuff was placed on their tail root (onto the same site in each case) which was connected with a manometer.
The material and diameter of the tail cuff was standardized. The measurement was carried out according to the Riva-Rocci principle. For determining the systolic blood pressure, the palpitation method was used. The heart rate was evaluated by a piezoelektric crystal put onto the rubber ring. The blood pressure measurement of each animal was started by 2 minutes following the immobilization, repeated in every 30 seconds and usually, the values several times repeatedly observed were accepted.
Effect of a single oral dose of the compound of Example 1 or Furosemide, respectively on the systolic blood pressure of SH rats

For `NS(=O)(=O)c1cc(C(=O)O)c(NCc2ccco2)cc1Cl` [Furosemide, reference compound], the response vs control in vivo at 5 mg/kg in test [1] (read-out: K (potassium) diuresis, percentage of the simultaneously measured control values) came out at 105%; in test [1] (read-out: Na (sodium) diuresis, percentage of the simultaneously measured control values), 106%; in test [1] (read-out: Water diuresis, percentage of the simultaneously measured control values), 107%. In test [1] (control 3.0), the “Na/K ratio of the urine discharged” value was 2.7. In test [2], the “diuretic effect in the 7 to 24 hours' period” value was “low”. Further, in test [3] (6 hours), the “Hypotension 6 hours following treatment, %” value stood at 25.3%. In addition, the “Hypotension 6 hours following treatment” value in test [3] (6 hours, before treatment 201 mmHg) was 51 mmHg. In addition, the “Hypotension 12 hours following treatment, %” value in test [3] (12 hours) stood at 19.4%. Also, the “Hypotension 12 hours following treatment” value in test [3] (12 hours, before treatment 201 mmHg) is reported as 39 mmHg. For the same compound, in test [3] (24 hours), the “Hypotension 24 hours following treatment, %” value is given as 1.5%. For the same compound, in test [3] (24 hours, before treatment 201 mmHg), the “Hypotension 24 hours following treatment” value is reported as 3 mmHg.
